Measurements reported in ChEMBL document CHEMBL1201862, “PubChem BioAssay data set” (2004).
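Test compounds were applied to cells in 96-well plates for 48 hours at 5 doses. The concentration for 50% growth inhibition is given as GI50.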 Calls of active or inactive are those of the source. Rule as the data show it: active = GI50 up to about 1.1 µM and inactive = higher.

Assays:
Assay in all cases: NCI tumour cell line growth inhibition, 48 h
A549 = system: A549
CCRF-CEM = system: CCRF-CEM
DU-145 = system: DU-145
HCC 2998 = system: HCC 2998
HT-29 = system: HT-29
IGROV-1 = system: IGROV-1
KM12 = system: KM12
M14 = system: M14
MDA-MB-231 = system: MDA-MB-231
Malme-3M = system: Malme-3M
OVCAR-3 = system: OVCAR-3
SF-268 = system: SF-268
SF-295 = system: SF-295
SF-539 = system: SF-539
SK-MEL-28 = system: SK-MEL-28
SK-MEL-2 = system: SK-MEL-2
SK-OV-3 = system: SK-OV-3
UO-31 = system: UO-31
TK-10 = system: TK-10
A498 = system: A498

Measured: GI50

COc1cc([N+](=O)[O-])c(S(=O)(=O)O)cc1-n1nc(-c2ccccc2)n[n+]1-c1cc(S(=O)(=O)[O-])c([N+](=O)[O-])cc1OC
inactive: A549 > 100 µM | CCRF-CEM > 100 µM | DU-145 > 100 µM | HCC 2998 > 100 µM | HT-29 > 100 µM | IGROV-1 > 100 µM | KM12 > 100 µM | M14 > 100 µM | MDA-MB-231 > 100 µM | Malme-3M > 100 µM | OVCAR-3 > 100 µM | SF-268 > 100 µM | SF-295 > 100 µM | SF-539 > 100 µM | SK-MEL-28 > 100 µM | SK-MEL-2 > 100 µM | SK-OV-3 > 100 µM | UO-31 > 100 µM

CC1OC2OC3C(OCC(O)C3O)OC(=O)[C@]34CCC(C)(C)CC3C3=CCC5[C@@]6(C)C[C@H](O)[C@H](OC7OC(CO)C(O)C(O)C7OC7OCC(OC(=O)CC(C)(O)CC(=O)OC1C(O)C2O)C(O)C7O)[C@@](C)(CO)C6CC[C@@]5(C)[C@]3(C)CC4 (stereo not given in full)
inactive: A549 2.24 µM | CCRF-CEM 5.68 µM | DU-145 3.97 µM | HCC 2998 2.43 µM | HT-29 2.73 µM | IGROV-1 5.71 µM | KM12 2.82 µM | M14 2.82 µM | MDA-MB-231 9.23 µM | Malme-3M 3.68 µM | OVCAR-3 9.64 µM | SF-268 2.45 µM | SF-295 3.42 µM | SF-539 12.7 µM | SK-MEL-28 1.96 µM | SK-MEL-2 7.91 µM | SK-OV-3 3.19 µM | TK-10 8.79 µM | UO-31 6.03 µM

COc1cc(C[C@@]2(C)[C@@H]3CCC[C@H](CO)[C@@]3(C)CC[C@@H]2C)c(Cl)c(OC)c1
inactive: A549 14.4 µM | CCRF-CEM 29.4 µM | DU-145 16.4 µM | HCC 2998 16.1 µM | HT-29 13.3 µM | IGROV-1 14.7 µM | KM12 18.2 µM | M14 18.3 µM | MDA-MB-231 16.4 µM | Malme-3M 16.2 µM | OVCAR-3 15.3 µM | SF-268 14.9 µM | SF-295 16.3 µM | SF-539 14.7 µM | SK-MEL-28 26.2 µM | SK-MEL-2 16.8 µM | SK-OV-3 17.5 µM | TK-10 19.5 µM | UO-31 16.6 µM

CN(C)CCNC(=O)c1cccc2c(NCC(=O)O)c3ccccc3nc12
inactive: A498 18.6 µM | A549 7.85 µM | CCRF-CEM 36 µM | DU-145 25.3 µM | HT-29 3.07 µM | IGROV-1 8.51 µM | KM12 11.9 µM | M14 17 µM | MDA-MB-231 14.7 µM | Malme-3M 11 µM | OVCAR-3 19.9 µM | SF-268 11.5 µM | SF-295 10.9 µM | SK-MEL-28 20.6 µM | SK-MEL-2 16.7 µM | SK-OV-3 21.1 µM | TK-10 31 µM | UO-31 7.4 µM

CCc1cc2c(c3c1CCCC3)CC1(Cc3ccc(C(=O)OC)cc3C1)C2 (stereo not given)
inactive: A549 > 100 µM | CCRF-CEM 18.3 µM | DU-145 > 100 µM | HCC 2998 > 100 µM | HT-29 73.8 µM | IGROV-1 > 100 µM | KM12 > 100 µM | M14 > 100 µM | MDA-MB-231 > 100 µM | Malme-3M > 100 µM | OVCAR-3 > 100 µM | SF-268 > 100 µM | SF-295 > 100 µM | SF-539 > 100 µM | SK-MEL-28 > 100 µM | SK-MEL-2 94.6 µM | SK-OV-3 > 100 µM | TK-10 > 100 µM | UO-31 > 100 µM

Cc1ccc2c(c1)[n+]([O-])c(N)n[n+]2[O-]
inactive: A498 75.3 µM | A549 > 100 µM | CCRF-CEM 91.2 µM | DU-145 > 100 µM | HT-29 > 100 µM | IGROV-1 51.5 µM | KM12 > 100 µM | M14 > 100 µM | MDA-MB-231 > 100 µM | OVCAR-3 > 100 µM | SF-268 > 100 µM | SF-295 > 100 µM | SF-539 > 100 µM | SK-MEL-28 > 100 µM | SK-MEL-2 > 100 µM | SK-OV-3 > 100 µM | TK-10 > 100 µM | UO-31 > 100 µM

ClCCCN(CCCCl)c1ccc(/C=N/c2cccc(Cl)c2)cc1
inactive: A549 10.2 µM | CCRF-CEM 16.4 µM | DU-145 2.56 µM | HCC 2998 32.1 µM | HT-29 23.6 µM | IGROV-1 29.8 µM | KM12 20.5 µM | M14 29.3 µM | MDA-MB-231 12.2 µM | Malme-3M 6.22 µM | OVCAR-3 19.1 µM | SF-268 21.7 µM | SF-295 15 µM | SF-539 53.2 µM | SK-MEL-28 55.8 µM | SK-MEL-2 26.7 µM | SK-OV-3 49.5 µM | TK-10 4.48 µM | UO-31 15.8 µM
